The values below come from PMC5617480 (Oncotarget, 2017).

One assay relates to BEL-7404 xenograft. The conditions noted are these: BEL-7404 model, 5-Fu 20.0 mg/kg per two days iv. How it is done: In vivo anticancer efficacy of chiral platinum(II) complex 6 was evaluated using BEL-7404 and BEL-7402 xenograft mouse models. BEL-7404 and BEL-7402 cells were injected into nude mice. The mice were randomized into the control group, complex 6-treated group, and the positive control group (n = 6/group). When the volume of tumor was about 80 mm^3, complex 6 was given at a high (8 mg/kg) and low (4 mg/kg) dosage daily for 18 days, 5-FU (20 mg/kg every two days) and Cisplatin (2 mg/kg every two days) were used as a positive control in the BEL-7404 and BEL-7402 xenograft model, respectively.
To evaluate the vivo anticancer efficacy of complex 6, BEL-7404 and BEL-7402 xenograft mouse models (BALB/c nude mice, female for BEL-7404 model, 17–20 g, 6–7 weeks old; male for BEL-7402 model, 18-21 g, 6–7 weeks old) were used. Furthermore, animal used, maximum tolerated dose (MTD) analysis, acute toxicity studies and antitumor activity toward BEL-7404 and BEL-7402 models in vivo of complex 6, was similar to Chen reported.
H21T (3.5 pmol; 5’-G [T AG ] -3’), primer TS (18 pmol; tumor tissue were cut into about 1.5 mm3 small pieces, and […]
5’-[…]-3’), KCl (63 mM), then transplanted into the right flank of nude mice. When EGTA (1 mM), MgCl (1.5 mM), Tween-20 (0.005%), the average tumors reach a volume of about 80 mm3, the […]
primer NT (7.5 pmol; 5’-[…]-3’), mice were randomized into 4 groups (n=6), received the […]
TSNT internal control (0.01 amol; 5’-[…] following treatments: (a) control, received saline solvent; […]
-3’), primer (b) complex 6 at doses of 8.0 mg/kg daily (dissolve in […]
Cxext (22.5 pmol; 5’-[…] saline, iv); (c) complex 6 at doses of 4.0 mg/kg daily; […]
[…]-3’), Taq DNA polymerase (2.5 U), and (d) in BEL-7404 model, 5-fluorouracil (5-Fu) as positive telomerase (100 ng). Complexes or/and distilled water control at 20 mg/kg per two days (dissolve in saline, iv); was added ([…]). PCR was performed in an Eppendorf in BEL-7402 model, cisplatin as positive control at 2 mg/ Master cycler equipped with a hot lid and incubated for kg per two days (dissolve in saline, iv).
30.0 min at 30 °C, followed by 92 °C 30 s, 52 °C 30 s, The tumor volumes and body weight was monitored and 72°C 30 s for 30.0 cycles. After amplification, 8.0 every 3 days, The tumor volumes were estimated by […] loading buffer (5×TBE buffer, 0.2% xylene cyanol, measuring the two dimensions of the tumors using caliper and 0.2% bromophenol blue ) were added to the reaction. and calculated by the formula 1 [1, 6, 14]:
An […] of aliquot was loaded onto a nondenaturing V = (length × width2)/2(1) acrylamide gel (19:1, 16%) in 1×TBE buffer and resolved at 200.0 V for 1.0 h. Gels were fixed and then stained with On day 18, the mice were sacrificed, and tumor AgNO3 [8–11]. tissue were dissected out and weighted, tumor growth inhibition rate calculated using formulas 2 and 3 [1, 6,
In order to verify whether complexes 4–6 can TGI (%) = (ΔVc − ΔVt)/ΔVc×100%(2) directly regulate c-myc promoter (Pu27) and the IR(%) = (Wc − Wt)/Wc×100%(3) expression of hTRET in BEL-7404 cells, consequently Where ΔVt = tumor volumefinal −tumor volumeinitial inhibiting the telomerase function, we constructed EGFP for compound treated group, ΔVc=tumor volumefinal − and c-myc gene vectors according to those illustrated tumor volumeinitial for vehicle control group; Wt and Wc in Chalfie, Chen and He previous work. The detailed mean the average tumor weight of complex-treated and procedures for the construct of gene (c-myc and EGFP vehicle controlled group respectively. genes) vectors, and the method of transfection assays REFERENCES have been reported by Chalfie, Chen and He [1, 6, 9, 12,

The subject of the next assay is BEL-7402 cells. Put plainly: Cytotoxicity assay (MTT assay). The assay is classed as cell-based, human. The conditions noted are these: BEL-7402, 100 μM. Background: Tetrazolium assays rely on reduction of a dye to a coloured formazan, in cell work by metabolically active cells.
The next assay relates to MGC80-3 cells. Put plainly: Cytotoxicity assay (MTT assay). The format is cell-based, human. The conditions noted are these: MGC80-3, 100 μM.
A further assay deals with HeLa cells. Put plainly: Cytotoxicity assay (MTT assay). The format is cell-based, human. The conditions noted are these: 100 μM.
Another assay concerns BEL-7404 cells. In words: Cytotoxicity assay (MTT assay). The assay is classed as cell-based, human. Conditions: BEL-7404, 100 μM.
The test system of the next assay is A549 cells. In words: Cytotoxicity assay (MTT assay). The format is cell-based, human. The conditions noted are these: A549, 100 μM.
A further assay concerns Hep-G2 cells. In words: Cytotoxicity assay (MTT assay). The format is cell-based, human. Conditions: Hep-G2, 100 μM.

`O=c1[nH]cc(F)c(=O)[nH]1` [5-FU, 5-fluorouracil, reference compound]: the “Tumor volume (start)” value in the assay with BEL-7404 xenograft is reported as 75.95±25.57 mm3. In addition, in the assay on BEL-7404 xenograft (day 18), the “Average tumor weight (mean ± SD g)” value is 0.47 ± 0.20 g and the “Tumor volume (end)” value is given as 576.17±297.34 mm3.
`C[S](C)(=O)[Pt]([Cl])([Cl])[S](C)(C)=O` [cis-Pt(DMSO)2Cl2]: the “Inhibitory rates (%)” value stood at 8.6 ± 2.4% in the assay with BEL-7402 cells (24 h); 12.3 ± 0.4% in the assay on BEL-7402 cells (48 h); 10.2 ± 1.3% in the assay with MGC80-3 cells (24 h); 30.4 ± 0.8% in the assay with MGC80-3 cells (48 h); 19.8 ± 0.7% with HeLa cells (24 h); 25.4 ± 1.2% in the assay on HeLa cells (48 h). The “Inhibitory rates (%)” value in the assay on BEL-7404 cells (24 h) is reported as 5.3 ± 1.5%; with BEL-7404 cells (48 h) it was 8.0 ± 0.7%; in the assay on A549 cells (24 h) it was 15.1 ± 1.7%; in the assay on A549 cells (48 h), 22.3 ± 0.5%; with Hep-G2 cells (24 h), 10.1 ± 0.4%; with Hep-G2 cells (48 h), 13.8 ± 0.7%.
